Assay results taken from patent US6921531B2, “Administering bifunctional molecules containing a drug moiety and presenter protein ligand for therapy” (The Board of Trustees of the Leland Stanford Junior …, priority 1998, dated 2005).
Entries after “also recorded” stand apart in the source; their conditions may differ.

Key:
FKBP52 = target: T1, FKBP52 (Homo sapiens, UniProt Q02790); experiment: Binding constants (Kd) for FKBP52, isothermal titration calorimetry
T1 construct: His6 (N); made in house
T1 sequence (Q02790 1-459): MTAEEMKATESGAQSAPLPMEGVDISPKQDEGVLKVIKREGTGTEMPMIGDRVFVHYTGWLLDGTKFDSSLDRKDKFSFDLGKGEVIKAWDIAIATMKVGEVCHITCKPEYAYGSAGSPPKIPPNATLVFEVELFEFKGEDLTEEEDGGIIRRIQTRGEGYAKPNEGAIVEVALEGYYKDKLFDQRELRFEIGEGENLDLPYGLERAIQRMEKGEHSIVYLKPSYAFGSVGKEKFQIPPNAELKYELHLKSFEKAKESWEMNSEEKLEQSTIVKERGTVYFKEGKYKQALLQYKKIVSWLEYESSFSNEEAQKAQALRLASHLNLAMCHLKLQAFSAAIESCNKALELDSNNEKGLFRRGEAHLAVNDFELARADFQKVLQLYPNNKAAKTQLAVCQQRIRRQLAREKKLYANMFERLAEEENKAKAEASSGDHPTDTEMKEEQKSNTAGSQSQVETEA
Text: SLF was synthesized according to the procedures of Holt et al. [J. Am. Chem. Soc. 1993, 115, 9925]. SLF was coupled to the N-terminus of the resin-bound protected pYEEI peptide using PyBOP. The heterodimeric SLFpYEEI was deprotected and cleaved from the Novasyn TGT resin (Calbiochem-Novabiochem, San Diego, Ca.) using 25% trifluoroacetic acid and 2.5% triisopropyl silane in methylene chloride and the desired product was isolated using reverse phase HPLC. C. […] Recombinant FKBP12 was expressed as a GST fusion protein and bound to glutathione beads (Pharmacia). Using thrombin (Sigma) to cleave the GST-FKBP12 fusion protein at a thrombin cleavage site in the linker between GST and FKBP12, recombinant FKBP12 could be released from the glutathione beads where GST remained bound. FKBP52 was expressed with a tag of six histidine residues at its N-terminus (pET28c expression vector, Novagen). The recombinant protein was bound via the histidine tag to Ni^2+ NTA agarose beads (Qiagen), washed extensively and eluted with imidazole. […]
SLFpYEEI and FKpYEEI are bifunctional molecules that can bind FKBP12 and FKBP52 as well as the Fyn SH2 domain (FIG. 2). The binding constants (Kd values) of the bifunctional molecules for the three proteins were measured using isothermal titration calorimetry (ITC) (Table 1).

Fyn SH2 domain = target: T2, Fyn SH2 domain (Homo sapiens, UniProt P06241); experiment: Competition binding assay of radioactive Fyn SH2 domain to pYEEI beads; conditions: for Effect of FKBP12 on affinity for the Fyn SH2 domain: 1.0 µM ligand plus FKBP12 (0.25-4.0 µM or 2.0 µM)
T2 construct: The Fyn, Lck and PLC SH2 domains were expressed in bacteria as GST fusion proteins; GST (cleaved yes); made in house; host or cells: bacteria
T2 sequence (P06241 149-246 limits assumed): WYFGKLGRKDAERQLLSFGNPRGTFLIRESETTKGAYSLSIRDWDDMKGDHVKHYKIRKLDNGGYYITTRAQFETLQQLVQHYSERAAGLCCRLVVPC
Text: The pYEEI peptide was coupled to Affi-Gel 10 beads (Biorad) via its amino-group. The Fyn, Lck and PLC SH2 domains were expressed in bacteria as GST fusion proteins. The linker between the GST protein and the SH2 domain contained a thrombin cleavage site and a protein kinase A (PKA) phosphorylation site. The fusion protein on glutathione beads was radioactively labeled at the PKA phosphorylation site using PKA (Sigma). After extensive washing of the beads, the radioactive SH2 domain was released by cleavage with thrombin (Sigma). In a typical binding assay, 7.5 L of a 1:1 peptide bead slurry were incubated with the radioactive SH2 domain (200 nM) for 2 hours in 100 L of binding buffer (20 mM Tris pH7.2; 150 mM NaCl). In order to separate the radioactive protein bound to the beads, the binding reaction was transfered into a PCR tube (USA Scientific Plastic), whose bottom had been punctured with a 26gauge needle. The PCR tube was placed in a 0.5 mL Eppendorf tube which in turn was placed in a regular 1.5 mL Eppendorf tube. The tubes were spun for 1 second at maximal speed in an Eppendorf centrifuge resulting in the separation of the beads remaining in the PCR tube and the supernatant, which was collected in the 0.5 ml Eppendorf tube. The beads were resuspended in […] PBS and the radioactivity was counted in a liquid scintillation counter after addition of 3 ml scintillation fluid. The radioactivity remaining in the 100 L supernatant was counted in the same way. It was determined that under the conditions described 65% Fyn, 25% PLC and 15%Lck SH2 domain were bound to the beads. By increasing the amount of beads, up to 80% Fyn, 40% PLC and 25% Lck could be bound. These amounts reflect the active fraction of SH2 domains in the different protein preparations.
In order to determine the relative affinity of the SH2 domains for FKpYEEI or SLFpYEEI alone and FKpYEEI or SLFpYEEI bound to FKBP12 and FKBP52, the following competition assay was used. Radioactive SH2 domains were incubated with pYEEI peptide beads and FKpYEEI or SLFpYEEI in the presence or absence of the respective FKBP proteins. FKpYEEI and FKpYEEI/FKBP as well as SLFpYEEI and SLFpYEEI/FKBP compete for binding of the SH2 domains with the peptide beads. The higher the affinity of the FKpYEEI or SLFpYEEI ligand in the supernatant, the less SH2 domain is bound to the peptide beads (FIG. 3).
Using the competition binding assay described above, FKpYEEI was added to peptide beads and the Fyn SH2 domain in the presence of increasing concentrations of FKBP52 (FIG. 4). In this assay, in 100 L binding reactions, radioactively labeled Fyn SH2 domain (200 nM) was incubated with 7.5 L of a 1:1 pYEEI bead slurry. No FKpYEEI, 1.0 M FKpYEEI or 1.0 M FKpYEEI plus increasing concentrations of FKBP52 (0.25-4.0 M) were added. The binding reactions were rotated at room temperature for 2 hours. The supernatant was separated from the beads by spinning the binding reactions in punctured PCR tubes for 1 sec in an Eppendorf centrifuge at maximal speed. The beads were resuspended in 100 1 PBS and the radioactivity bound to the beads was counted in a liquid scintillation vial for 30 sec. The radioactivity bound to the beads in the presence of only the Fyn SH2 domain was plotted as 100% of maximal Fyn SH2 domain binding to pYEEI beads. The radioactivity bound in the presence of FKpYEEI and FKBP52 was calculated as the percentage of maximal Fyn SH2 domain binding. Every binding reaction was done in triplicate. The data points reflect the average of the three binding reactions. The error bars indicate the standard error.
In this assay, in 100 L binding reactions, radioactively labeled Fyn SH2 domain (200 nM) was incubated with 7.5 L of a 1:1 pYEEI bead slurry. […] The binding reactions were rotated at room temperature for 2 hours, centrifuged and analysed as described above. […]

Row | Compound | Kd (FKBP52) | Effect of FKBP12 on affinity for the Fyn SH2 domain (Fyn SH2 domain) | Effect of FKBP52 on affinity for the Fyn SH2 domain (Fyn SH2 domain; 1.0 M ligand plus FKBP52 0.25-4.0 M) | Enhancement of affinity in the context of FKBP52 in respect to pYEEI (Fyn SH2 domain; IC50 of FKpYEEI plus FKBP52 vs IC50 of pYEEI) | Factor of affinity enhancement for the Fyn SH2 domain in complex with FKBP52 (Fyn SH2 domain; IC50 with FKBP52 vs without) | Factor of affinity reduction for the Fyn SH2 domain in complex with FKBP12 (Fyn SH2 domain; IC50 with FKBP12 vs without)
1 | CC[C@H](C)[C@H](NC(=O)[C@H](CCC(=O)O)NC(=O)[C@H](CCC(=O)O)NC(=O)[C@H](Cc1ccc(OP(=O)(O)O)cc1)NC(=O)OCC[C@@H]1/C=C(\C)C[C@H](C)C[C@H](OC)[C@H]2O[C@@](O)(C(=O)C(=O)N3CCCC[C@H]3C(=O)O[C@H](/C(C)=C/[C@@H]3CC[C@@H](O)[C@H](OC)C3)[C@H](C)[C@@H](O)CC1=O)[C@H](C)C[C@@H]2OC)C(=O)O [FKpYEEI] | 150 nM | does not enhance the binding affinity for the Fyn SH2 domain; also recorded: does not affect the affinity | higher affinity for the Fyn SH2 domain | 4.4 fold | three | –
2 | CC[C@H](C)[C@H](NC(=O)[C@H](CCC(=O)O)NC(=O)[C@H](CCC(=O)O)NC(=O)[C@H](Cc1ccc(OP(=O)(O)O)cc1)NC(=O)COc1cccc([C@@H](CCc2ccc(OC)c(OC)c2)OC(=O)[C@@H]2CCCCN2C(=O)C(=O)C(C)(C)CC)c1)C(=O)O [SLFpYEEI] | – | reduced affinity for the Fyn SH2 domain; also recorded: reduced binding | – | – | – | six
